One data set has as its system SPNE 9912. Briefly: Minimum inhibitory concentration (MIC) by agar dilution. The class given is cell-based. As to conditions: Streptococcus pneumoniae, lowest concentration of drug that inhibits visible growth of the organism, strain SPNE 9912, read-out: Antibacterial Activity, Minimum Inhibitory Concentration (MIC μg/mL) SPNE 9912. The text has this:
Compounds of this invention have useful activity against a variety of organisms. The in vitro activity of compounds of this invention can be assessed by standard testing procedures such as the determination of minimum inhibitory concentration (MIC) by agar dilution as described in “Approved Standard. Methods for Dilution Antimicrobial Susceptibility Tests for Bacteria That Grow Aerobically”, 3rd. ed., published 1993 by the National Committee for Clinical Laboratory Standards, Villanova, Pa., USA. Minimum inhibitory concentration (MIC) refers to lowest concentration of drug (μg/mL) that inhibits visible growth of the organism. “- -” refers to the activity data is not available.

Values after ≈ are worked out from the molar mass of the structure shown.

As for `O=C1O[C@@H](CNC(=O)C(F)(F)F)CN1c1ccc(C2C=CSCC2)c(F)c1` (stereo partly drawn) [Example 1, N-[[(5S)-3-[4-(3,4-dihydro-2H-thiopyran-4-yl)-3-fluorophenyl]-2-oxo-5-oxazolidinyl]methyl]-2,2,2-trifluoroacetamide], in the data set on SPNE 9912, the MIC is 2 µg/mL (≈ 4.95 µM).

In the case of `CC(=O)NC[C@H]1CN(c2ccc(C3C=CSCC3)c(F)c2)C(=O)O1` (stereo partly drawn) [Example 2, N-[[(5S)-3-[4-(3,4-dihydro-2H-thiopyran-4-yl)-3-fluorophenyl]-2-oxo-5-oxazolidinyl]methyl]acetamide], the MIC in the data set with SPNE 9912 was 1 µg/mL (≈ 2.85 µM).

Regarding `CC(=S)NC[C@H]1CN(c2ccc(C3C=CSCC3)c(F)c2)C(=O)O1` (stereo partly drawn) [Example 3, N-[[(5S)-3-[4-(3,4-dihydro-2H-thiopyran-4-yl)-3-fluorophenyl]-2-oxo-5-oxazolidinyl]methyl]ethanethioamide], the MIC in the data set with SPNE 9912 was 0.5 µg/mL (≈ 1.36 µM).

Consider `CC(=O)NC[C@H]1CN(c2ccc(C3C=C[S+]([O-])CC3)c(F)c2)C(=O)O1` (stereo partly drawn) [Example 4, N-[[(5S)-3-[4-(3,4-dihydro-1-oxido-2H-thiopyran-4-yl)-3-fluorophenyl]-2-oxo-5-oxazolidinyl]methyl]acetamide], for which, in the data set on SPNE 9912, the MIC worked out at 1 µg/mL (≈ 2.73 µM).

On to `CC(=O)NC[C@H]1CN(c2ccc(C3C=CS(=O)(=O)CC3)c(F)c2)C(=O)O1` (stereo partly drawn) [Example 5, N-[[(5S)-3-[4-(3,4-Dihydro-1,1-dioxido-2H-thiopyran-4-yl)-3-fluorophenyl]-2-oxo-5-oxazolidinyl]methyl]acetamide], for which the MIC in the data set with SPNE 9912 was 0.25 µg/mL (≈ 0.654 µM).

On to `CC(=S)NC[C@H]1CN(c2ccc(C3C=C[S+]([O-])CC3)c(F)c2)C(=O)O1` (stereo partly drawn) [Example 6, N-[[(5S)-3-[4-(3,4-dihydro-1-oxido-2H-thiopyran-4-yl)-3-fluorophenyl]-2-oxo-5-oxazolidinyl]methyl]ethanethioamide], for which the MIC with SPNE 9912 was found to be 0.25 µg/mL (≈ 0.654 µM).

Consider `CC(=O)NC[C@H]1CN(c2ccc(N3C=CS(=O)(=O)CC3)c(F)c2)C(=O)O1` [Example 7, N-[[(5S)-3-[4-(2,3-dihydro-1,1-dioxido-4H-1,4-thiazin-4-yl)-3-fluorophenyl]-2-oxo-5-oxazolidinyl]methyl]acetamide], for which the melting point lay in the range of 193 to 194 °C. Also, in the data set on SPNE 9912, the MIC stood at 0.5 µg/mL (≈ 1.3 µM).

Turning to `CC(=O)NC[C@H]1CN(c2cc(F)c(N3C=CS(=O)(=O)CC3)c(F)c2)C(=O)O1` [Example 8, N-[[(5S)-3-[4-(2,3-dihydro-1,1-dioxido-4H-1,4-thiazin-4-yl)-3,5-difluorophenyl]-2-oxo-5-oxazolidinyl]methyl]acetamide], the MIC with SPNE 9912 was 0.5 µg/mL (≈ 1.25 µM).

Take `O=C(NC[C@H]1CN(c2ccc(C3C=CS(=O)(=O)CC3)c(F)c2)C(=O)O1)C(F)F` (stereo partly drawn) [Example 9, N-[[(5S)-3-[4-(3,4-dihydro-1,1-dioxido-2H-thiopyran-4-yl)-3-fluorophenyl]-2-oxo-5-oxazolidinyl]methyl]-2,2-difluoroacetamide]: the MIC in the data set with SPNE 9912 amounted to 0.5 µg/mL (≈ 1.2 µM).

As to `O=C1O[C@@H](CNC(=S)C(F)F)CN1c1ccc(C2C=CS(=O)(=O)CC2)c(F)c1` (stereo partly drawn) [Example 10, N-[[(5S)-3-[4-(3,4-dihydro-1,1-dioxido-2H-thiopyran-4-yl)-3-fluorophenyl]-2-oxo-5-oxazolidinyl]methyl]-2,2-difluoroethanethioamide], the MIC with SPNE 9912 worked out at 0.25 µg/mL (≈ 0.575 µM).

The compound `O=C(NC[C@H]1CN(c2ccc(C3C=CS(=O)(=O)CC3)c(F)c2)C(=O)O1)C(Cl)Cl` (stereo partly drawn) [Example 11, 2,2-dichloro-N-[[(5S)-3-[4-(3,4-dihydro-1,1-dioxido-2H-thiopyran-4-yl)-3-fluorophenyl]-2-oxo-5-oxazolidinyl]methyl]acetamide] came in with a melting point of 148 to 150 °C. In the data set with SPNE 9912, the MIC amounted to 0.5 µg/mL (≈ 1.11 µM).

In turn, `CC(=O)NC[C@H]1CN(c2ccc(C3C=CS(=O)(=O)CC3)cc2)C(=O)O1` (stereo partly drawn) [Example 14, N-[[(5S)-3-[4-(3,4-dihydro-1,1-dioxido-2H-thiopyran-4-yl)phenyl]-2-oxo-5-oxazolidinyl]methyl]acetamide] returned a melting point of 187 to 189 °C. The MIC in the data set with SPNE 9912 was 1 µg/mL (≈ 2.74 µM).

`O=C(NC[C@H]1CN(c2ccc(C3C=CS(=O)(=O)CC3)cc2)C(=O)O1)C(F)F` (stereo partly drawn) [Example 15, N-[[(5S)-3-[4-(3,4-dihydro-1,1-dioxido-2H-thiopyran-4-yl)phenyl]-2-oxo-5-oxazolidinyl]methyl]-2,2-difluoroacetamide] gave a melting point of 135 to 136 °C. Besides, the MIC in the data set with SPNE 9912 worked out at 0.5 µg/mL (≈ 1.25 µM).

`O=C(NC[C@H]1CN(c2ccc(C3C=CS(=O)(=O)CC3)cc2)C(=O)O1)C(Cl)Cl` (stereo partly drawn) [Example 16, 2,2-dichloro-N-[[(5S)-3-[4-(3,4-dihydro-1,1-dioxido-2H-thiopyran-4-yl)phenyl]-2-oxo-5-oxazolidinyl]methyl]acetamide] displayed a melting point of 159 to 161 °C. For the same compound, the MIC with SPNE 9912 is 0.25 µg/mL (≈ 0.577 µM).

Turning to `O=C1O[C@@H](CNC(=S)C(F)F)CN1c1ccc(C2C=CS(=O)(=O)CC2)cc1` (stereo partly drawn) [Example 17, [[(5S)-3-[4-(3,4-dihydro-1,1-dioxido-2H-thiopyran-4-yl)phenyl]-2-oxo-5-oxazolidinyl]methyl]-2,2-difluoroethanethioamide], the melting point lay within 139 to 140 °C. For the same compound, in the data set on SPNE 9912, the MIC was 0.25 µg/mL (≈ 0.6 µM).

Regarding `CC(=O)NC[C@H]1CN(c2cc(F)c(C3C=CS(=O)(=O)CC3)c(F)c2)C(=O)O1` (stereo partly drawn) [Example 20, N-[[(5S)-3-[4-(3,4-dihydro-1,1-dioxido-2H-thiopyran-4-yl)-3,5-difluorophenyl]-2-oxo-5-oxazolidinyl]methyl]acetamide], the MIC with SPNE 9912 was determined as 1 µg/mL (≈ 2.5 µM).

Turning to `O=C1O[C@@H](CNC(=S)C(F)F)CN1c1ccc(N2C=CS(=O)(=O)CC2)c(F)c1` [Example 21, N-[[(5S)-3-[4-(2,3-dihydro-1,1-dioxido-4H-1,4-thiazin-4-yl)-3-fluorophenyl]-2-oxo-5-oxazolidinyl]methyl]-2,2-difluoroethanethioamide], the MIC in the data set with SPNE 9912 came out at 0.25 µg/mL (≈ 0.574 µM).

Consider `O=C(NC[C@H]1CN(c2ccc(N3C=CS(=O)(=O)CC3)c(F)c2)C(=O)O1)C(Cl)Cl` [Example 22, 2,2-dichloro-N-[[(5S)-3-[4-(2,3-dihydro-1,1-dioxido-4H-1,4-thiazin-4-yl)-3-fluorophenyl]-2-oxo-5-oxazolidinyl]methyl]acetamide], for which the MIC with SPNE 9912 is 0.25 µg/mL (≈ 0.553 µM).

For the compound `O=C(NC[C@H]1CN(c2ccc(N3C=CS(=O)(=O)CC3)c(F)c2)C(=O)O1)C(F)F` [Example 23, N-[[(5S)-3-[4-(2,3-dihydro-1,1-dioxido-4H-1,4-thiazin-4-yl)-3-fluorophenyl]-2-oxo-5-oxazolidinyl]methyl]-2,2-difluoroacetamide], the MIC with SPNE 9912 was determined as 0.5 µg/mL (≈ 1.19 µM).

Consider `O=C1O[C@@H](CNC(=S)C(F)F)CN1c1ccc(N2C=CS(=O)(=O)CC2)cc1` [Example 24, N-[[(5S)-3-[4-(2,3-dihydro-1,1-dioxido-4H-1,4-thiazin-4-yl)phenyl]-2-oxo-5-oxazolidinyl]methyl]-2,2-difluoroethanethioamide], for which, in the data set on SPNE 9912, the MIC came to 0.5 µg/mL (≈ 1.2 µM).

Regarding `O=C(NC[C@H]1CN(c2ccc(N3C=CS(=O)(=O)CC3)cc2)C(=O)O1)C(Cl)Cl` [Example 25, 2,2-dichloro-N-[[(5S)-3-[4-(2,3-dihydro-1,1-dioxido-4H-1,4-thiazin-4-yl)phenyl]-2-oxo-5-oxazolidinyl]methyl]acetamide], the MIC in the data set with SPNE 9912 is 1 µg/mL (≈ 2.3 µM).

For `O=C(NC[C@H]1CN(c2ccc(N3C=CS(=O)(=O)CC3)cc2)C(=O)O1)C(F)F` [Example 26, N-[[(5S)-3-[4-(2,3-dihydro-1,1-dioxido-4H-1,4-thiazin-4-yl)phenyl]-2-oxo-5-oxazolidinyl]methyl]-2,2-difluoroacetamide], the MIC in the data set with SPNE 9912 turned out to be 1 µg/mL (≈ 2.49 µM).

In the case of `O=C1O[C@@H](CNC(=S)C(F)F)CN1c1cc(F)c(N2C=CS(=O)(=O)CC2)c(F)c1` [Example 27, N-[[(5S)-3-[4-(2,3-dihydro-1,1-dioxido-4H-1,4-thiazin-4-yl)-3,5-difluorophenyl]-2-oxo-5-oxazolidinyl]methyl]-2,2-difluoroethanethioamide], the MIC with SPNE 9912 is 0.25 µg/mL (≈ 0.551 µM).

As for `O=C(NC[C@H]1CN(c2cc(F)c(N3C=CS(=O)(=O)CC3)c(F)c2)C(=O)O1)C(Cl)Cl` [Example 28, 2,2-dichloro-N-[[(5S)-3-[4-(2,3-dihydro-1,1-dioxido-4H-1,4-thiazin-4-yl)-3,5-difluorophenyl]-2-oxo-5-oxazolidinyl]methyl]acetamide], the MIC in the data set with SPNE 9912 stood at 0.5 µg/mL (≈ 1.06 µM).

Consider `O=C(NC[C@H]1CN(c2cc(F)c(N3C=CS(=O)(=O)CC3)c(F)c2)C(=O)O1)C(F)F` [Example 29, N-[[(5S)-3-[4-(2,3-dihydro-1,1-dioxido-4H-1,4-thiazin-4-yl)-3,5-difluorophenyl]-2-oxo-5-oxazolidinyl]methyl]-2,2-difluoroacetamide], for which the MIC in the data set on SPNE 9912 was 0.5 µg/mL (≈ 1.14 µM).

Regarding `O=C(NC[C@H]1CN(c2cc(F)c(C3C=CS(=O)(=O)CC3)c(F)c2)C(=O)O1)C(F)F` (stereo partly drawn) [Example 30, N-({(5S)-3-[4-(1,1-dioxido-3,4-dihydro-2H-thiopyran-4-yl)-3,5-difluorophenyl]-2-oxo-1,3-oxazolidin-5-yl}methyl)-2,2-difluoroacetamide], the MIC in the data set on SPNE 9912 was 1 µg/mL (≈ 2.29 µM).

`O=C(NC[C@H]1CN(c2cc(F)c(C3C=CS(=O)(=O)CC3)c(F)c2)C(=O)O1)C(Cl)Cl` (stereo partly drawn) [Example 31, 2,2-dichloro-N-({(5S)-3-[4-(1,1-dioxido-3,4-dihydro-2H-thiopyran-4-yl)-3,5-difluorophenyl]-2-oxo-1,3-oxazolidin-5-yl}methyl)acetamide]: the MIC in the data set on SPNE 9912 is 0.5 µg/mL (≈ 1.07 µM).

Take `O=C1O[C@@H](CNC(=S)C(F)F)CN1c1cc(F)c(C2C=CS(=O)(=O)CC2)c(F)c1` (stereo partly drawn) [Example 32, N-({(5S)-3-[4-(1,1-dioxido-3,4-dihydro-2H-thiopyran-4-yl)-3,5-difluorophenyl]-2-oxo-1,3-oxazolidin-5-yl}methyl)-2,2-difluoroethanethioamide]: the MIC in the data set with SPNE 9912 was 0.5 µg/mL (≈ 1.11 µM).

A word on the melting point: it is the temperature of the solid-liquid transition.

The values are drawn from patent US6884813B2, “Antimicrobial dihydrothiazine and dihydrothiopyran oxazolidinones” (Pharmacia & Upjohn Company, priority 2002, dated 2005).
